In patent publication US11639364B2, “Potent sialyltransferase inhibitors” (STICHTING RADBOUD UNIVERSITEIT, priority 2018, dated 2023):
Like-named read-outs stand apart in the source and are kept apart here.

How the values were obtained:
B16-F10 cells [1] = assay: Inhibition of cell surface sialylation by urea, thiocarbamate and sulphonamide analogues (Example 5); format: cell-based, Mouse; conditions: for IC50: three days, 0.1-204.8 μM
Procedure: (§1) Mouse B16-F10 melanoma cells (ATCC CRL-6475) were cultured in Minimum Essential Medium (MEM) (Gibco, Invitrogen, Carlsbad, Calif.) containing 5% fetal bovine serum (FBS) (Greiner Bio-one, Frickenhausen, Germany), 1% MEM non-essential amino acids (Gibco), 0.15% sodium bicarbonate (Gibco), 1 mM sodium pyruvate (Gibco), 1.5% MEM vitamins (Gibco), 1% antibiotic-antimycotic solution (50 U/ml penicillin, 50 μg/ml streptomycin and 125 ng/ml amphotericin B) (Gibco). The murine 9464D neuroblastoma cell line was cultured in Dulbecco's Modified Eagle's Medium (DMEM, Glutamax, Gibco) with 10% FBS, 1% non-essential amino acids, 50 μM 2-mercaptoethanol (Sigma-Aldrich) and 1% antibiotic-antimycotic solution (Kroesen et al., 2014, DOI: 10.1002/ijc.28463, Stauffer et al., 2012, DOI: 10.3109/07357907.2012.664670). The murine EL4 T lymphocyte cell line (ATCC TIB-39) was cultured in Iscove's Modified Dulbecco's Medium (IMDM, Gibco) supplemented with 5% FBS and 1% antibiotic-antimycotic solution. Human HEK293 (ATCC CRL-1573) kidney cells and human HeLa (ATCC CCL-2) cervical cancer cells were cultured in DMEM containing 10% FBS, 2 mM glutamine (Lonza, Walkersville, Md.) and 1% antibiotic-antimycotic solution. Human monocytic THP-1 cells (TIB-202, ATCC) were cultured in RRMI-1640 medium (Gibco) supplemented with 10% FBS, 2 mM glutamine and 1% antibiotic-antimycotic solution. All cell lines were cultured in a humidified 5% CO2 incubator at 37° C.
(§2) For the lectin staining, all cells were harvested and washed with 1× carbo-free blocking solution (Vector Laboratories, Inc., Burlingame, Calif., USA) and stained for 45 minutes at 4° C. in 1× carbo-free blocking solution containing 1 mM CaCl2), 1 mM MgCl2 and biotinylated MALII (5 μg/ml), SNA-1 (1 μg/ml) or PNA (5 μg/ml) all obtained from Vector Laboratories Inc. MALII recognizes α2,3-linked sialic acids, SNA-1 recognizes α2,6-linked sialic acids and PNA binds to terminal 3-galactose. In addition, B16-F10 cells were stained with 2 μg/ml biotinylated AAL (α-linked Fucose), LCA (α-linked Mannose), PHA-L (complex glycans), GSL-I (α-linked Galactose and N-Acetylgalactosamine), WGA (chitobiose), SJA (β-linked Galactose and N-Acetylgalactosamine) and PSA (Glucose and Mannose) purchased from Vector Laboratories Inc. Next, the cells were washed thrice in PBA (1×PBS, 1% BSA, and 0.02% sodium azide) and stained for 10 minutes at 4° C. with 2 μg/ml streptavidin-phycoerythrin (PE) (BD Pharmingen, Franklin Lakes, N.J., USA). The cells were washed thrice again with PBA and fluorescence was assessed using a CyAn ADP flow cytometer (BD Biosciences, San Jose, Calif.) followed by analysis with FlowJo software (Tree Star Inc., Ashland, Oreg.). Untreated cells stained with streptavidin-PE only served as background fluorescence control. The percentages lectin binding was calculated by normalizing the mean fluorescence intensity values from the treated cells with the DMSO controls.
IC50 values and statistics were calculated using Prism 5.03 (GraphPad Software, Inc., La Jolla, Calif.). Statistical significance between the different groups was calculated using one-way ANOVA followed by Bonferroni post-hoc testing and P-values<0.05 were considered significant (p<0.05 *, p<0.01 **, p<0.001 ***).
Analogous to example 3, the inhibitory potency of thiocarbamate 28, urea 29, and sulphonamides 30 and 31 on the sialic acid biosynthesis was assayed. To this end, B16-F10 cells were fed sialic acid precursors for three day at various concentrations (0.1-204.8 μM). The decrease in cell surface sialylation was measured using biotinylated lectins that are specific for binding α2,3-linked (MALII) or α2,6-linked (SNA-1) sialic acid residues, subsequently visualized using streptavidin-phycoerythrin. Conversely, binding of the underlying galactose residue uncovered by desialylation was measured using a galactose specific lectin (Peanut, Agglutinin Lectin, PNA). No inhibition was observed without a P-3Fax-Neu derivative present (DMSO vehicle control). […]

9464D cells = assay: Inhibition of cell surface sialylation, lectin staining and flow cytometry, 9464D cells; format: cell-based, murine; conditions: three days
Procedure: as §1
(§3) To assess the effect of the synthesized compounds on cell surface sialylation, different murine and human cell lines were cultured for three days in the presence of 0-204.8 μM amide and carbamate fluorine sialic acids. Cells treated with an equal final percentage of DMSO were used as control and all cells were subjected to lectin staining and flow cytometry as described below. To investigate the longevity of the effect of the fluorine sialic acids on cell surface sialylation, B16-F10 cells treated with 25.6 μM or 51.2 μM were thoroughly washed with medium to remove fluorine sialic acids from the culture and reseeded. During a period of six days, cells were harvested every day and sialylation was assessed by flow cytometry.
as §2
(§4) IC50 values and statistics were calculated using Prism 5.03 (GraphPad Software, Inc., La Jolla, Calif.). Statistical significance between the different groups was calculated using one-way ANOVA followed by Bonferroni post-hoc testing and P-values<0.05 were considered significant (p<0.05 *, p<0.01 **, p<0.001 ***). […]

B16-F10 cells [2] = assay: Inhibition of cell surface sialylation, lectin staining and flow cytometry, B16-F10 cells; format: cell-based, Mouse; conditions: three days
Procedure: as §1, §3, §2, §4

THP-1 cells = assay: Inhibition of cell surface sialylation, lectin staining and flow cytometry, THP-1 cells; format: cell-based, Human; conditions: three days
Procedure: as §1, §3, §2, §4

HeLa cells = assay: Inhibition of cell surface sialylation, lectin staining and flow cytometry, HeLa cells; format: cell-based, human; conditions: three days
Procedure: as §1, §3, §2, §4

EL4 cells = assay: Inhibition of cell surface sialylation, lectin staining and flow cytometry, EL4 cells; format: cell-based, murine; conditions: three days
Procedure: as §1, §3, §2, §4

HEK293 cells = assay: Inhibition of cell surface sialylation, lectin staining and flow cytometry, HEK293 cells; format: cell-based, Human; conditions: three days
Procedure: as §1, §3, §2, §4

[3] = Example 5, read-out: α2,3-Sia IC50 (MAL)
[4] = Example 5, read-out: α2,6-Sia IC50 (SNA)
[5] = MALII lectin binding, read-out: α2,3-Sia IC50
[6] = SNA-I lectin binding, read-out: α2,6-Sia IC50
[7] = Mus musculus, 72 h, MALII lectin binding, read-out: α2,3-Sia IC50
[8] = Mus musculus, 72 h, SNA-I lectin binding, read-out: α2,6-Sia IC50
[9] = Homo sapiens, 72 h, MALII lectin binding, read-out: α2,3-Sia IC50
[10] = Homo sapiens, 72 h, SNA-I lectin binding, read-out: α2,6-Sia IC50

Compound	IC50 (B16-F10 cells [1]; [3])	IC50 (B16-F10 cells [1]; [4])	IC50 (9464D cells; [7])	IC50 (9464D cells; [8])	IC50 (B16-F10 cells [2]; [7])	IC50 (B16-F10 cells [2]; [8])	IC50 (THP-1 cells; [9])	IC50 (THP-1 cells; [10])	IC50 (HeLa cells; [9])	IC50 (HeLa cells; [10])	IC50 (EL4 cells; [7])	IC50 (EL4 cells; [8])	IC50 (HEK293 cells; [9])	IC50 (HEK293 cells; [10])	also measured
Methyl 5-N-ethylamidnocarbonyl)-2,4,7,8,9-penta-O-acetyl-3,5-dideoxy-3-fluoro-D-glycero-β-galacto-non-2-ulopyranosonate [Urea 29]	4.2 µM	4.89 µM	–	–	–	–	–	–	–	–	–	–	–	–	–
Methyl 5-(methylsulfonamido)-2,4,7,8,9-penta-O-acetyl-3,5-dideoxy-3-fluoro-D-glycero-β-galacto-non-2-ulopyranosonate [Sulphonamide 30]	9.9 µM	–	–	–	–	–	–	–	–	–	–	–	–	–	inhibition of sialylation compared with the acetate (B16-F10 cells [1]; FIG. 8): outperforming the acetate at various concentrations
COC(=O)C1(OC(C)=O)O[C@@H]([C@H](OC(C)=O)[C@@H](COC(C)=O)OC(C)=O)[C@H](NC(C)=O)[C@@H](OC(C)=O)[C@H]1F (stereo partly drawn) [SiaFAc, Methyl 5-(acetamido)-2,4,7,8,9-penta-O-acetyl-3,5-dideoxy-3-fluoro-D-glycero-β-galacto-non-2-ulopyranosonate, reference compound]	–	20.9 µM	–	–	–	–	–	–	–	–	–	–	–	–	IC50 (9464D cells; [5]): > 102 µM; IC50 (9464D cells; [6]): > 102 µM; IC50 (B16-F10 cells [2]; [5]): 26.8 ± 5.72 µM; IC50 (B16-F10 cells [2]; [6]): 32.8 ± 3.08 µM; IC50 (THP-1 cells; [5]): 8.5 ± 1.54 µM; IC50 (THP-1 cells; [6]): 10.9 ± 2.47 µM; IC50 (HeLa cells; [5]): 53 ± 3.61 µM; IC50 (HeLa cells; [6]): 34.5 ± 2.18 µM; IC50 (EL4 cells; [5]): > 102 µM; IC50 (EL4 cells; [6]): > 102 µM; IC50 (HEK293 cells; [5]): 45.2 ± 8.3 µM; IC50 (HEK293 cells; [6]): 36.7 ± 3.59 µM
Methyl 5-(S-ethylthiocarbamado)-2,4,7,8,9-penta-O-acetyl-3,5-dideoxy-3-fluoro-D-glycero-β-galacto-non-2-ulopyranosonate [Thiocarbamate 28]	1.68 µM	4.83 µM	–	–	–	–	–	–	–	–	–	–	–	–	–
CCOC(=O)N[C@@H]1C(OC(C)=O)C(F)C(OC(C)=O)(C(=O)OC)OC1[C@H](OC(C)=O)[C@@H](COC(C)=O)OC(C)=O (stereo partly drawn) [SiaFEt, Methyl 5-(ethylcarbamado)-2,4,7,8,9-penta-O-acetyl-3,5-dideoxy-3-fluoro-D-glycero-β-galacto-non-2-ulopyranosonate]	–	–	8.91 ± 2.38 µM	28.1 ± 5.51 µM	1.78 ± 0.16 µM	3.87 ± 1.14 µM	0.45 ± 0.74 µM	0.37 µM	2.02 ± 1.52 µM	1.67 ± 1.31 µM	42 ± 11 µM	50.6 ± 8.84 µM	2.02 ± 2.72 µM	1.57 ± 4.23 µM	IC50 (B16-F10 cells [1]; Mus musculus, 72 h, Example 5, read-out: α2,3-Sia IC50 (MAL)): 0.929 µM; IC50 (B16-F10 cells [1]; Mus musculus, 72 h, Example 5, read-out: α2,6-Sia IC50 (SNA)): 3.92 µM
COC(=O)N[C@@H]1C(OC(C)=O)C(F)C(OC(C)=O)(C(=O)OC)OC1[C@H](OC(C)=O)[C@@H](COC(C)=O)OC(C)=O (stereo partly drawn) [SiaFMe, Methyl 5-(methylcarbamado)-2,4,7,8,9-penta-O-acetyl-3,5-dideoxy-3-fluoro-D-glycero-β-galacto-non-2-ulopyranosonate]	–	–	18.3 ± 2.67 µM	29.6 ± 4.67 µM	4.89 ± 0.25 µM	7.54 ± 1.34 µM	1.98 ± 0.91 µM	2.65 ± 1.6 µM	6.33 ± 3.26 µM	5.23 ± 1.88 µM	59.2 ± 4.17 µM	52.7 ± 5.45 µM	3.31 ± 1.24 µM	4.77 ± 2.8 µM	–
COC(=O)C1(OC(C)=O)OC([C@H](OC(C)=O)[C@@H](COC(C)=O)OC(C)=O)[C@H](NC(=O)CN=[N+]=[N-])C(OC(C)=O)C1F (stereo partly drawn) [SiaFAz, Methyl 5-(azidoacetamido)-2,4,7,8,9-penta-O-acetyl-3,5-dideoxy-3-fluoro-D-glycero-β-galacto-non-2-ulopyranosonate, reference compound]	–	–	> 102 µM	> 102 µM	19.9 ± 2.08 µM	32.8 ± 3.55 µM	10.9 ± 1.98 µM	13.2 ± 3.02 µM	80.6 ± 3.26 µM	42.2 ± 8.42 µM	> 102 µM	> 102 µM	45.6 ± 5.14 µM	47.2 ± 2.89 µM	–
COC(=O)C1(OC(C)=O)OC([C@H](OC(C)=O)[C@@H](COC(C)=O)OC(C)=O)[C@H](NC(=O)COC(C)=O)C(OC(C)=O)C1F (stereo partly drawn) [SiaFGc, Methyl 5-(acetoxyamido)-2,4,7,8,9-penta-O-acetyl-3,5-dideoxy-3-fluoro-D-glycero-β-galacto-non-2-ulopyranosonate]	–	–	> 102 µM	> 102 µM	4.98 ± 0.33 µM	11.8 ± 2.27 µM	4.24 ± 2 µM	5.94 ± 2.18 µM	16.6 ± 3.91 µM	12.5 ± 2.52 µM	> 102 µM	> 102 µM	53.6 ± 5.25 µM	54.1 ± 15.3 µM	–
